Experimental findings from ChEMBL document CHEMBL3272069, “Inhibition of acetylcholinesterase by thiamine. A structure-function study” (J Med Chem, 1977) are described below.

Active and inactive are the calls of the source. No cut-off for these calls is given here.

For data set [1], the target named is Acetylcholinesterase (Electrophorus electricus) (UniProt O42275). Description: (§1) Competitive inhibition of electric eel AChE using acetylthiocholine chloride as substrate at pH 7 by Michaelis-Menten plot analysis.
Data set [2] shares this target. As to the kind of experiment: (§2) Noncompetitive inhibition of electric eel AChE using acetylthiocholine chloride as substrate at pH 7 by Michaelis-Menten plot analysis.
For data set [3] the target is unchanged. Description: (§3) Noncompetitive inhibition of electric eel AChE using acetylthiocholine chloride as substrate at pH 8.25 by Michaelis-Menten plot analysis.
The target is the same in data set [4]. As to the kind of experiment: (§4) Competitive inhibition of electric eel AChE using acetylthiocholine chloride as substrate at pH 8.25 by Michaelis-Menten plot analysis.
Data set [5] deals with T1, Acetylcholinesterase (Electrophorus electricus, UniProt O42275). The description is as §1.
A short description of data set [6]: Dissociation constant, pKa of the compound by potentiometric titration analysis. The class given is physicochemical.
Data set [7] has as its target T1, Acetylcholinesterase. The description is as §2.
For data set [8], the target named is T1, Acetylcholinesterase. The description is as §3.
Data set [9] has as its target T1, Acetylcholinesterase. The description is as §4.

Sequence of Acetylcholinesterase (Electrophorus electricus) (O42275 24-633 limits assumed): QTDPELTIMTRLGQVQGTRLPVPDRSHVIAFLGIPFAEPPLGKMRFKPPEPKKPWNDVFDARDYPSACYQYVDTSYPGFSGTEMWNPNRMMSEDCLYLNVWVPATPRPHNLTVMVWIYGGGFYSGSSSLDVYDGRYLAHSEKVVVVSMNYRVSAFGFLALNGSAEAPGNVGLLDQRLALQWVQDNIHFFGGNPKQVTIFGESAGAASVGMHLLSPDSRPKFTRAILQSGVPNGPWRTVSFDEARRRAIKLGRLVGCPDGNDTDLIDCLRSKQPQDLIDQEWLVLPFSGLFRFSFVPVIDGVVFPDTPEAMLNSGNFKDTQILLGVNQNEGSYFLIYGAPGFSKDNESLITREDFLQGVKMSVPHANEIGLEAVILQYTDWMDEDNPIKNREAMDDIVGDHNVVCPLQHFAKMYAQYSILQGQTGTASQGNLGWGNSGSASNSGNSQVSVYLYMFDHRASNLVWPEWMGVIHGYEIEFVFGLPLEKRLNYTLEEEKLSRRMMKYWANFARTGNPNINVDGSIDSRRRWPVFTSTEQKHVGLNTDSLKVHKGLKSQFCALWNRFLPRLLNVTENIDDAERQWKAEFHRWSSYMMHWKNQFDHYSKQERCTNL
T1 sequence (O42275 whole entry): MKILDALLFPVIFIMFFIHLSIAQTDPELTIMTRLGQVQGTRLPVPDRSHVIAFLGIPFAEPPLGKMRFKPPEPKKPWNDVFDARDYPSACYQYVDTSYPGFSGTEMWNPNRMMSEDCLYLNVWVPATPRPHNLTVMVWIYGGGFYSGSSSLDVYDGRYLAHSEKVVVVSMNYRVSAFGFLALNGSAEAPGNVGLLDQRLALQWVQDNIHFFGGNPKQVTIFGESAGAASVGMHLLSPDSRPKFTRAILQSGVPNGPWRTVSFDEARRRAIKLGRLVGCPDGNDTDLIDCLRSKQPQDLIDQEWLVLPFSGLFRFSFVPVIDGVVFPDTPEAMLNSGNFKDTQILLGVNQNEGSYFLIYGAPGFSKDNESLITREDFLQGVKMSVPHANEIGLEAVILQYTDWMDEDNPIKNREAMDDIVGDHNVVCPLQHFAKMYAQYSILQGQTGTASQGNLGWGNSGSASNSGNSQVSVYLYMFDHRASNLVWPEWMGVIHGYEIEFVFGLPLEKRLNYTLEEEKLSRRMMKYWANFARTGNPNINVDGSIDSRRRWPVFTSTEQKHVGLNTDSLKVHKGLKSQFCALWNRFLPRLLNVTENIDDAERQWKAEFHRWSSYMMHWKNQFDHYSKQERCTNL

With `c1cncnc1`, the inhibition entry in data set [1], in data set [2], in [3] and in [4] was “inactive” in each case.
The Ki is the equilibrium dissociation constant of an inhibitor or competing ligand from its target. Usually pKa stands for the pH at which an ionisable group is half protonated. High values mean a group that holds its proton tightly, low ones a group that gives up its proton readily. Take `Cc1ncc(CN2CSC(CCO)C2C)c(N)n1` (stereo not drawn): the Ki turned out to be 188 µM in data set [5], 624 µM in data set [7], 839 µM in data set [8] and 496 µM in data set [9]. The molecule also showed a pKa in data set [6] of 7.6.
For `Cc1ncc(C[n+]2csc(CCO)c2C)c(N)n1` [THIAMINE], the Ki in [5] stood at 432 µM; in data set [7] it was 565 µM; in data set [8] it was 333 µM; in data set [9], 392 µM.
With `c1cscn1`, the inhibition result in data set [1], in data set [2], in data set [3] and in data set [4] was “inactive” throughout.
For the molecule `C[n+]1ccsc1`, the Ki stood at 317 µM in data set [5], 939 µM in data set [7], 2.95 µM in data set [8] and 286 µM in data set [9].
Regarding `Cc1ncc(C[n+]2csc(CCOP(=O)(O)O)c2C)c(N)n1` [MONOPHOSPHOTHIAMINE], the Ki in data set [5] came to 3010 µM; in data set [7], 9270 µM; in data set [8], 5930 µM; in data set [9] it was 11300 µM.
`Cc1ncc(CS(=O)(=O)O)c(N)n1`: the inhibition result in data set [1], in [2], in [3] and in data set [4] was “inactive” throughout.
`Cc1csc[n+]1C`: the Ki in data set [5] was found to be 67.9 µM; in [7] it was 9.8 µM; in [8] it was 445 µM; in data set [9] it was 54.8 µM.
With `CCc1scnc1C`, the Ki in [5] came to 468 µM; in data set [7], 1950 µM; in [8] it was 51100 µM; in data set [9], 562 µM.
Regarding `CCc1sc[n+](C)c1C`, the Ki in data set [5] is 11.1 µM; in data set [7], 5.43 µM; in [8] it was 0.935 µM; in data set [9], 8.34 µM.
In the case of `Cc1ncc(C)c(N)n1`, the Ki amounted to 111 µM in data set [5], 260 µM in [7], 551 µM in data set [8] and 163 µM in [9]. Besides, the pKa in [6] stood at 6.5.
In the same order, the values of `Nc1ccncn1` are 5020 µM, 8850 µM, 4240 µM, 9720 µM and 5.71.
Regarding `Cc1ncc(C[n+]2csc(CCO[P@](=O)(O)OP(=O)(O)O)c2C)c(N)n1`, the Ki is 14600 µM in [5], 6740 µM in data set [7], 58400 µM in data set [8] and 14200 µM in data set [9].
In the same order, the values of `Cc1ncsc1CCO` are 7990 µM, 1370 µM, 706 µM and 8610 µM.
In the same order, the values of `Cc1ncc(C[n+]2csc(CCOP(=O)(O)OP(=O)(O)OP(=O)(O)O)c2C)c(N)n1` are 5200 µM, 881 µM, 1000 µM and 10000 µM.
As for `Cc1c(CCO)sc[n+]1C`, the Ki in data set [5] was found to be 148 µM; in data set [7], 1250 µM; in data set [8], 18800 µM; in data set [9], 75.6 µM.
For `Cc1ncc(CN2CSC3CCOC32C)c(N)n1` (stereo not drawn), the figures for the Ki in data set [8] and in data set [9] were 237 µM and 541 µM, respectively.
Take `Cc1cscn1`: the inhibition constant (Ki) in [5] is 5420 µM; in data set [7] it was 3250 µM; in data set [8] it was 109000 µM; in data set [9], 6070 µM.
